Measured values: US20250002450A1, “CATIONIC STEROID COMPOUNDS, METHOD OF OBTAINING THEREOF, FORMULATIONS COMPRISING THEREOF AND THEIR USES” (UNIVERSIDADE DO PORTO, priority 2021, published 2025)
≈ marks a conversion by molar mass, not a printed value.

How the values were obtained:
Test in all cases: Antibacterial MIC/MBC (broth microdilution)
[1] = tested on: Listonella anguilarum ATCC 1924; assay type: cell-based; details: for MBC / MIC: Listonella anguilarum ATCC 1924; for MBC: read-out: MBC; for MIC: read-out: MIC
Text: (§1) Twelve reference bacterial strains and nine MDR clinically relevant bacterial strains were used in this study. Gram-negative bacteria comprised reference strains E. coli ATCC 25922, K. pneumoniae ATCC 13883, Salmonella enterica serovar Typhimurium CECT 443, P. aeruginosa ATCC 27853, A. baumannii ATCC 19606, C. jejuni ATCC 33560 (ATCC—American Type Culture Collection; CECT—Colección Espanola de Cultivos Tipo); clinical isolates E. coli SA/2, an extended-spectrum β-lactamase (ESBL)-producing strain and P. aeruginosa 33b, a pan-drug-resistant isolate; and animal isolates C. jejuni P5/4, a ciprofloxacin-resistant strain, C. jejuni 4432, C. jejuni 4433, C. jejuni 4448, and E. coli 2252, a COL-resistant strain [42]. Gram-positive strains included S. aureus ATCC 29213, E. faecalis ATCC 29212, S. pyogenes ATCC 19615, and environmental isolates methicillin-resistant S. aureus (MRSA) 66/1 [43], and VAN-resistant enterococci (VRE) E. faecalis B3/101 [44]. Gram-negative fish pathogens Yersinia ruckeri ATCC 29473, Listonella anguillarum ATCC 1924, and Tenacibaculum maritimum ATCC 43397 were also included.
(§2) Strains were kept in Trypto-Casein Soy agar (TSA—Biokar Diagnostics, Allone, Beauvais, France) slants and, before each assay, were sub-cultured in Mueller-Hinton agar (MHA—Biokar Diagnostics, Allone, Beauvais, France). Y. ruckeri ATCC 29473 and L. anguillarum ATCC 1924 were kept in Nutrient Agar (Condalab, Madrid, Spain) and T. maritimum ATCC 43397 was kept in TMM agar (Condalab, Madrid, Spain), and were sub-cultured in the respective culture media before each assay. For S. pyogenes ATCC 19615, CAMHB was supplemented with 3.75% lysed horse blood (LBH—Oxoid, Basingstoke, England), whereas for C. jejuni it was supplemented with 2.5% LHB. Colony-forming unit counts of the inoculum were conducted to determine the initial inoculum size (which should be approximately 5×10^5 CFU/mL). Sterility and growth controls were included in each assay. The 96-well U-shaped untreated polystyrene microtiter plates were incubated for 20 h at 37 degrees C. (42 degrees C. for C. jejuni, in a microaerophilic atmosphere) and the minimal inhibitory concentration (MIC) was determined as the lowest concentration of compound that prevented visible growth. The minimal bactericidal concentration (MBC) was determined by spreading 100 μL of the content of the wells with no visible growth on MH plates. The MBC was determined as the lowest concentration of compound that killed 99.9% of the initial inoculum after overnight incubation at 37 degrees C. Two independent assays were performed for reference and MDR strains.
(§3) An initial screening of the antibacterial activity of the compounds was performed by the Kirby-Bauer disk diffusion method, as recommended by the Clinical and Laboratory Standards Institute (CLSI). Briefly, sterile 6 mm blank paper disks (Oxoid, Basingstoke, England) impregnated with 15 μg of each compound were placed on inoculated MH agar plates. A blank disk with dimethylsulfoxide (DMSO) was used as a negative control. MH inoculated plates were incubated for 18-20 h at 37 degrees C. At the end of incubation, the inhibition halos where measured. The MIC was used to determine the antibacterial activity of each compound, in accordance with the recommendations of the CLSI. Two-fold serial dilutions of the compounds were prepared in Mueller-Hinton Broth 2 (MHB2—Sigma-Aldrich, St. Louis, MO, USA) within the concentration range of 0.062-64 μg/mL. CTX ranging between 0.031-16 μg/mL was used as a control. Sterility and growth controls were included in each assay. Purity checks and colony counts of the inoculum suspensions were also performed in order to ensure that the final inoculum density closely approximates the intended number (5×10^5 CFU/mL). The MIC was determined as the lowest concentration of compound that inhibited growth of the bacteria. The MBC was assessed by spreading 10 μL of culture collected from wells showing no visible growth on MH agar plates. […]

[2] = tested on: Staphylococcus aureus ATCC 29213; assay type: cell-based; details: for MBC: ATCC29213, read-out: MBC; for MIC: ATCC29213, read-out: MIC
Text: as §1, §2, §3

[3] = tested on: Yersinia ruckeri ATCC 29473; assay type: cell-based; details: for MBC: ATCC29473, read-out: MBC; for MIC: ATCC29473, read-out: MIC
Text: as §1, §2, §3

[4] = tested on: Klebsiella pneumoniae ATCC 13883; assay type: cell-based; details: ATCC13883, Klebsiella pneumoniae ATCC 13883; for MBC: read-out: MBC; for MIC: read-out: MIC
Text: as §1, §2, §3

[5] = tested on: Escherichia coli ATCC 25922; assay type: cell-based; details: ATCC25922, Escherichia coli ATCC 25922; for MBC: read-out: MBC; for MIC: read-out: MIC
Text: as §1, §2, §3

[6] = tested on: Campylobacter jejuni ATCC 33560; assay type: cell-based; details: for MBC / MIC: ATCC33560, Campylobacter jejuni ATCC 33560; for MBC: read-out: MBC; for MIC: read-out: MIC
Text: as §1, §2, §3

[7] = tested on: Salmonella enterica serovar Typhimurium CECT 443; assay type: cell-based; details: for MBC: read-out: MBC; for MIC: read-out: MIC
Text: as §1, §2, §3

[8] = tested on: Pseudomonas aeruginosa ATCC 27853; assay type: cell-based; details: ATCC27853, Pseudomonas aeruginosa ATCC 27853; for MBC: read-out: MBC; for MIC: read-out: MIC
Text: as §1, §2, §3

[9] = tested on: Acinetobacter baumannii ATCC 19606; assay type: cell-based; details: for MBC / MIC: ATCC19606, Acinetobacter baumannii ATCC 19606; for MBC: read-out: MBC; for MIC: read-out: MIC
Text: as §1, §2, §3

E. coli SA/2 (ESBL) = assay type: cell-based, Escherichia coli; details: Escherichia coli
Text: as §1, §2, §3

[10] = tested on: E. coli 2252 (COL-resistant); assay type: cell-based, Escherichia coli; details: Escherichia coli, E. coli 2252 (COL-resistant); for MBC: read-out: MBC; for MIC: read-out: MIC
Text: as §1, §2, §3

P. aeruginosa 33b (PDR) = assay type: cell-based, Pseudomonas aeruginosa; details: Pseudomonas aeruginosa, P. aeruginosa 33b (PDR); for MBC: read-out: MBC; for MIC: read-out: MIC
Text: as §1, §2, §3

[11] = tested on: Enterococcuss faecalis ATCC 29212; assay type: cell-based, Enterococcus faecalis; details: for MBC / MIC: Enterococcus faecalis, ATCC29212, Enterococcuss faecalis ATCC 29212; for MBC: read-out: MBC; for MIC: read-out: MIC; for antibacterial activity (in words): E. faecalis ATCC 29212
Text: as §1, §2, §3

E. faecalis B3/101 (VRE) = assay type: cell-based, Enterococcus faecalis; details: for MBC / MIC: Enterococcus faecalis, E. faecalis B3/101 (VRE); for MBC: read-out: MBC; for MIC: read-out: MIC
Text: as §1, §2, §3

S. aureus 66/1 (MRSA) = assay type: cell-based, Staphylococcus aureus; details: Staphylococcus aureus; for MBC: read-out: MBC; for MIC: read-out: MIC
Text: as §1, §2, §3

Compound | MBC [1] [µg/mL] | MIC [1] [µg/mL] | MBC [2] [µg/mL] | MIC [2] [µg/mL] | MBC [3] [µg/mL] | MIC [3] [µg/mL] | MBC [4] [µg/mL] | MIC [4] [µg/mL] | MBC [5] [µg/mL] | MIC [5] [µg/mL] | MBC [6] [µg/mL] | MIC [6] [µg/mL] | MBC [7] [µg/mL] | MIC [7] [µg/mL] | MBC [8] [µg/mL] | MIC [8] [µg/mL] | MBC [9] [µg/mL] | MIC [9] [µg/mL] | MBC (E. coli SA/2 (ESBL)) [µg/mL] | MIC (E. coli SA/2 (ESBL)) [µg/mL] | also measured
C[C@H](CCC(=O)N1CCN(C(=O)OC(C)(C)C)CC1)[C@H]1CC[C@H]2[C@@H]3CC[C@@H]4C[C@H](O)CC[C@]4(C)[C@H]3C[C@H](O)[C@]12C [Compound 5, tert-butyl 4-((R)-4-((3R,5R,8R,9S,10S,12S,13R,14S,17R)-3,12-dihydroxy-10,13-dimethylhexadecahydro-1H-cyclopenta[a]phenanthren-17-yl)pentanoyl)piperazine-1-carboxylate] | > 64 | > 64 | > 64 | 16 (≈ 28.5 µM) | > 64 | > 64 | > 64 | > 64 | > 64 | > 64 | > 64 | > 64 | > 64 | > 64 | > 64 | > 64 | > 64 | > 64 | > 64 | > 64 | MBC [10]: > 64 µg/mL; MIC [10]: > 64 µg/mL; MBC (P. aeruginosa 33b (PDR)): > 64 µg/mL; MIC (P. aeruginosa 33b (PDR)): > 64 µg/mL; MBC [11]: > 64 µg/mL; MIC [11]: > 64 µg/mL; MBC (E. faecalis B3/101 (VRE)): > 64 µg/mL; MIC (E. faecalis B3/101 (VRE)): > 64 µg/mL; MBC (S. aureus 66/1 (MRSA)): > 64 µg/mL; MIC (S. aureus 66/1 (MRSA)): 64 µg/mL (≈ 114 µM)
C[C@H](CCC(=O)N1CCOCC1)[C@H]1CC[C@H]2[C@@H]3CC[C@@H]4C[C@H](O)CC[C@]4(C)[C@H]3C[C@H](O)[C@]12C [Compound 3, (R)-4-((3R,5R,8R,9S,10S,12S,13R,14S,17R)-3,12-dihydroxy-10,13-dimethylhexadecahydro-1H-cyclopenta[a]phenanthren-17-yl)-1-morpholinopentan-1-one] | > 64 | > 64 | > 64 | > 64 | > 64 | > 64 | > 64 | > 64 | > 64 | > 64 | > 64 | > 64 | > 64 | > 64 | > 64 | > 64 | > 64 | > 64 | > 64 | > 64 | MBC [10]: > 64 µg/mL; MIC [10]: > 64 µg/mL; MBC (P. aeruginosa 33b (PDR)): > 64 µg/mL; MIC (P. aeruginosa 33b (PDR)): > 64 µg/mL; MBC [11]: > 64 µg/mL; MIC [11]: > 64 µg/mL; MBC (E. faecalis B3/101 (VRE)): > 64 µg/mL; MIC (E. faecalis B3/101 (VRE)): > 64 µg/mL; MBC (S. aureus 66/1 (MRSA)): > 64 µg/mL; MIC (S. aureus 66/1 (MRSA)): > 64 µg/mL
C[C@H](CCC(=O)N1CCNCC1)[C@H]1CC[C@H]2[C@@H]3CC[C@@H]4C[C@H](O)CC[C@]4(C)[C@H]3C[C@H](O)[C@]12C [Compound 9, (R)-4-((3R,5R,8R,9S,10S,12S,13R,14S,17R)-3,12-dihydroxy-10,13-dimethylhexadecahydro-1H-cyclopenta[a]phenanthren-17-yl)-1-(piperazin-1-yl) pentan-1-one] | 64 (≈ 139 µM) | 64 (≈ 139 µM) | 64 (≈ 139 µM) | 64 (≈ 139 µM) | > 64 | > 64 | > 64 | > 64 | > 64 | > 64 | > 64 | > 64 | 64 (≈ 139 µM) | 64 (≈ 139 µM) | > 64 | > 64 | 64 (≈ 139 µM) | 64 (≈ 139 µM) | > 64 | > 64 | antibacterial activity (in words) ([1]; Listonella anguilarum): active; antibacterial activity (in words) ([9]; A. baumannii ATCC 19606): displayed an inhibitory effect; MBC [10]: > 64 µg/mL; MIC [10]: > 64 µg/mL; MBC (P. aeruginosa 33b (PDR)): > 64 µg/mL; MIC (P. aeruginosa 33b (PDR)): > 64 µg/mL; antibacterial activity (in words) [11]: exhibited antimicrobial activity; MBC [11]: 64 µg/mL (≈ 139 µM); MIC [11]: 64 µg/mL (≈ 139 µM); antibacterial activity (in words) (E. faecalis B3/101 (VRE); E. faecalis B3/101): displayed the same effect; MBC (E. faecalis B3/101 (VRE)): > 64 µg/mL; MIC (E. faecalis B3/101 (VRE)): 32 µg/mL (≈ 69.5 µM); MBC (S. aureus 66/1 (MRSA)): 64 µg/mL (≈ 139 µM); MIC (S. aureus 66/1 (MRSA)): 64 µg/mL (≈ 139 µM)
C[C@H](CCC(=O)N1CCCCC1)[C@H]1CC[C@H]2[C@@H]3CC[C@@H]4C[C@H](O)CC[C@]4(C)[C@H]3C[C@H](O)[C@]12C [Compound 2, (R)-4-((3R,5R,8R,9S,10S,12S,13R,14S,17R)-3,12-dihydroxy-10,13-dimethylhexadecahydro-1H-cyclopenta[a]phenanthren-17-yl)-1-(piperidin-1-yl) pentan-1-one] | > 64 | > 64 | > 64 | 32 (≈ 69.6 µM) | > 64 | > 64 | > 64 | > 64 | > 64 | > 64 | 64 (≈ 139 µM) | 64 (≈ 139 µM) | > 64 | > 64 | > 64 | > 64 | > 64 | > 64 | > 64 | > 64 | antibacterial activity (in words) ([6]; C. jejuni ATCC 33560): showed antimicrobial activity; MBC [10]: > 64 µg/mL; MIC [10]: > 64 µg/mL; MBC (P. aeruginosa 33b (PDR)): > 64 µg/mL; MIC (P. aeruginosa 33b (PDR)): > 64 µg/mL; antibacterial activity (in words) [11]: exhibited antimicrobial activity; MBC [11]: > 64 µg/mL; MIC [11]: 32 µg/mL (≈ 69.6 µM); MBC (E. faecalis B3/101 (VRE)): > 64 µg/mL; MIC (E. faecalis B3/101 (VRE)): > 64 µg/mL; MBC (S. aureus 66/1 (MRSA)): > 64 µg/mL; MIC (S. aureus 66/1 (MRSA)): 32 µg/mL (≈ 69.6 µM)
